The values that follow come from ChEMBL document CHEMBL4715760, “Balancing potency, metabolic stability and permeability in pyrrolopyrimidine-based EGFR inhibitors” (Eur J Med Chem, 2016).

The target of test [1] is T1, Epidermal growth factor receptor (Homo sapiens, UniProt P00533). The note with it: dose 100.0 nM.
Description: Inhibition of human EGFR at 100 nM using poly[Glu:Tyr] (4:1) as substrate in presence of [gamma33P]ATP by radiometric HotSpot assay relative to control
Test [2] deals with Focal adhesion kinase 1 (Homo sapiens) (UniProt Q05397). Nature of the test: Inhibition of recombinant full length human GST-tagged PTK2 expressed in baculovirus expression system at 500 nM using Tyr 07 as substrate incubated for 1 hr in presence of ATP at its Km concentration by Z'-LYTE assay relative to control.
For test [3], the target named is Macrophage colony-stimulating factor 1 receptor (Homo sapiens) (UniProt P07333). Nature of the test: Inhibition of recombinant human His-tagged CSF1R (538 to 910 residues) expressed in baculovirus expression system at 500 nM using Tyr 01 peptide as substrate incubated for 1 hr in presence of ATP at its Km concentration by Z'-LYTE assay relative to control.
Test [4] deals with Tyrosine-protein kinase Lck (Homo sapiens) (UniProt P06239). Conditions: dose 500.0 nM, time 1.0 hrs.
Test [5] concerns the target Tyrosine-protein kinase Fgr (Homo sapiens) (UniProt P09769). Nature of the test: Inhibition of recombinant full length human C-terminal His-tagged FGR expressed in baculovirus expression system at 500 nM using Tyr 02 peptide as substrate incubated for 1 hr in presence of ATP at its Km concentration by Z'-LYTE assay relative to control.
The subject of a further test is BaF3. Nature of the test: Antiproliferative activity against mouse Ba/F3 cells expressing EGFR-L858R mutant assessed as inhibition of cell growth incubated for 48 hrs by XTT assay. The class given is functional, cell-based. Conditions: BaF3, 48 h.
The target of test [6] is Tyrosine-protein kinase Fyn (Homo sapiens) (UniProt P06241). Nature of the test: Inhibition of recombinant human C-terminal His-tagged full length FYN expressed in baculovirus expression system at 500 nM using Tyr 02 peptide as substrate incubated for 1 hr in presence of ATP at its Km concentration by Z'-LYTE assay relative to control.
Test [7] concerns the target T2, Ephrin type-A receptor 1 (Homo sapiens) (UniProt P21709).
T2 sequence (whole entry): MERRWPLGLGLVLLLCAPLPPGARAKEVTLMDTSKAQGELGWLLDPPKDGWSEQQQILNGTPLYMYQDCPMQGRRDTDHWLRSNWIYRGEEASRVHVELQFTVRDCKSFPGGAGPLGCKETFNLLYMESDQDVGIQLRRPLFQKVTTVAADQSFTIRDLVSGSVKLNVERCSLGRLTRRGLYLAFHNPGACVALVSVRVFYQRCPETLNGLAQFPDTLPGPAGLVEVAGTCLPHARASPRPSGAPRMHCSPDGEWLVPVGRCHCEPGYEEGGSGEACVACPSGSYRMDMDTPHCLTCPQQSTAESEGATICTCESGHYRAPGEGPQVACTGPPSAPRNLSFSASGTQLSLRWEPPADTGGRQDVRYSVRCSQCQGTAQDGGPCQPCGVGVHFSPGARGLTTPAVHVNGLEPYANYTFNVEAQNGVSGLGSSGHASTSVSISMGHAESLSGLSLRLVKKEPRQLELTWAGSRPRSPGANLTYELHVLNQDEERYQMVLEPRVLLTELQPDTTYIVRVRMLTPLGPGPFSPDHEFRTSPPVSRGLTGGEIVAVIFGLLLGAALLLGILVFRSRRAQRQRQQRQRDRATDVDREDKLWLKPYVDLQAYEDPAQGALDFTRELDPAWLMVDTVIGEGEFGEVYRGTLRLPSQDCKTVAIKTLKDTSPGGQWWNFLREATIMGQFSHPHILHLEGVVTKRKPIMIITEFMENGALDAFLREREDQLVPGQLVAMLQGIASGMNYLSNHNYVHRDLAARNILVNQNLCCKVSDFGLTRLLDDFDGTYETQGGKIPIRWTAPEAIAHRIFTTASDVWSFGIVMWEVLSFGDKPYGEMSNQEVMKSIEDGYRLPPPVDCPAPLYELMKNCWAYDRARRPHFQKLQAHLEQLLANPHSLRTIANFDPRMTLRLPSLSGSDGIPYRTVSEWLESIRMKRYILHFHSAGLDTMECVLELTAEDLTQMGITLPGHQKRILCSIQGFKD
Nature of the test: Inhibition of recombinant human GST-tagged EPHA1 (568 to 976 residues) expressed in baculovirus expression system at 500 nM using Tyr 02 peptide as substrate incubated for 1 hr in presence of ATP at its Km concentration by Z'-LYTE assay relative to control.

Test [8] addresses Tyrosine-protein kinase Lyn (Homo sapiens) (UniProt P07948). Nature of the test: Inhibition of recombinant full length human GST-tagged LYN-A expressed in insect cells at 500 nM using Tyr 02 as substrate incubated for 1 hr in presence of ATP at its Km concentration by Z'-LYTE assay relative to control.
For test [9], the target named is Tyrosine-protein kinase ABL1 (Homo sapiens) (UniProt P00519). Nature of the test: Inhibition of recombinant full length human His-tagged ABL1 cytoplasmic domain expressed in baculovirus expression system at 500 nM using Tyr 02 peptide as substrate incubated for 1 hr in presence of ATP at its Km concentration by Z'-LYTE assay relative to control.
Test [10] has as its target T1, Epidermal growth factor receptor. Nature of the test: Inhibition of human EGFR using poly[Glu:Tyr] (4:1) as substrate in presence of [gamma33P]ATP by radiometric HotSpot assay.
Test [11] concerns the target Aurora kinase B (Homo sapiens) (UniProt Q96GD4). Nature of the test: Inhibition of recombinant full length His-tagged human AURKB expressed in baculovirus expression system at 500 nM using Ser/Thr 01 as substrate incubated for 1 hr in presence of ATP at its Km concentration by Z'-LYTE assay relative to control.
Test [12] deals with Proto-oncogene tyrosine-protein kinase Src (Homo sapiens) (UniProt P12931). Nature of the test: Inhibition of recombinant human His-tagged full length SRC expressed in baculovirus expression system at 500 nM using Tyr 02 as substrate incubated for 1 hr in presence of ATP at its Km concentration by Z'-LYTE assay relative to control.
The target of test [13] is Serine/threonine-protein kinase pim-2 (Homo sapiens) (UniProt Q9P1W9). Nature of the test: Inhibition of recombinant full length GST-tagged human PIM2 expressed in baculovirus expression system at 500 nM using Ser/Thr 07 as substrate incubated for 1 hr in presence of ATP at its Km concentration by Z'-LYTE assay relative to control.
The target of test [14] is Mitogen-activated protein kinase 14 (Homo sapiens) (UniProt Q16539). Nature of the test: Inhibition of recombinant human GST-tagged full length MAPK14 expressed in Escherichia coli expression system at 500 nM using Ser/Thr 04 as substrate incubated for 1 hr in presence of ATP at its Km concentration by Z'-LYTE assay relative to control.
Test [15] addresses Protein kinase C alpha type (Homo sapiens) (UniProt P17252). Nature of the test: Inhibition of human full length GST-tagged PRKCA expressed in insect cells at 500 nM using Ser/Thr 07 as substrate incubated for 1 hr in presence of ATP at its Km concentration by Z'-LYTE assay relative to control.

Sequence of Serine/threonine-protein kinase pim-2 (Homo sapiens) (Q9P1W9 whole entry, looked up): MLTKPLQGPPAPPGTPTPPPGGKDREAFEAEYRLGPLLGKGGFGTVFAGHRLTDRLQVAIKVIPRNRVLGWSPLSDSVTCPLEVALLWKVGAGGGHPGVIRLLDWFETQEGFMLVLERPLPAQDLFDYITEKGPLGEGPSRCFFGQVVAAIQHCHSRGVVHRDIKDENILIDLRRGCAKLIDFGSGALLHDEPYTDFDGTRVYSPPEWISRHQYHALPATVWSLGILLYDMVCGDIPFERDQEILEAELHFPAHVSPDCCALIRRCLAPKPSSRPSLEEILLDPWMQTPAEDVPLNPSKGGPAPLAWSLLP
Sequence of Tyrosine-protein kinase Fyn (Homo sapiens) (P06241 2-537 limits assumed): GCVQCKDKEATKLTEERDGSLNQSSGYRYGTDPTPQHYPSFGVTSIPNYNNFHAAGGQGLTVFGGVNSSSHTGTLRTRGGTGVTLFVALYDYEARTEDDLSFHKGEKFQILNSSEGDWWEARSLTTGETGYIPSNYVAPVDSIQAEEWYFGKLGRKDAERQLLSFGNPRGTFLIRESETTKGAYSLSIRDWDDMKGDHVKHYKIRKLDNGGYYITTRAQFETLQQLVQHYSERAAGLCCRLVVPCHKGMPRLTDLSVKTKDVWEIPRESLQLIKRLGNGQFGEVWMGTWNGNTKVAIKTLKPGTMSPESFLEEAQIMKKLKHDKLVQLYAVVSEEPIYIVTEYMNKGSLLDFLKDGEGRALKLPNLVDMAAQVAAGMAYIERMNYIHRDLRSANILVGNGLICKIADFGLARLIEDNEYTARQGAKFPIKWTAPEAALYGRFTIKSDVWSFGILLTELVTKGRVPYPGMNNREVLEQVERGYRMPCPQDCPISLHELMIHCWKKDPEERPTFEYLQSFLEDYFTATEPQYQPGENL
T1 sequence (P00533 whole entry): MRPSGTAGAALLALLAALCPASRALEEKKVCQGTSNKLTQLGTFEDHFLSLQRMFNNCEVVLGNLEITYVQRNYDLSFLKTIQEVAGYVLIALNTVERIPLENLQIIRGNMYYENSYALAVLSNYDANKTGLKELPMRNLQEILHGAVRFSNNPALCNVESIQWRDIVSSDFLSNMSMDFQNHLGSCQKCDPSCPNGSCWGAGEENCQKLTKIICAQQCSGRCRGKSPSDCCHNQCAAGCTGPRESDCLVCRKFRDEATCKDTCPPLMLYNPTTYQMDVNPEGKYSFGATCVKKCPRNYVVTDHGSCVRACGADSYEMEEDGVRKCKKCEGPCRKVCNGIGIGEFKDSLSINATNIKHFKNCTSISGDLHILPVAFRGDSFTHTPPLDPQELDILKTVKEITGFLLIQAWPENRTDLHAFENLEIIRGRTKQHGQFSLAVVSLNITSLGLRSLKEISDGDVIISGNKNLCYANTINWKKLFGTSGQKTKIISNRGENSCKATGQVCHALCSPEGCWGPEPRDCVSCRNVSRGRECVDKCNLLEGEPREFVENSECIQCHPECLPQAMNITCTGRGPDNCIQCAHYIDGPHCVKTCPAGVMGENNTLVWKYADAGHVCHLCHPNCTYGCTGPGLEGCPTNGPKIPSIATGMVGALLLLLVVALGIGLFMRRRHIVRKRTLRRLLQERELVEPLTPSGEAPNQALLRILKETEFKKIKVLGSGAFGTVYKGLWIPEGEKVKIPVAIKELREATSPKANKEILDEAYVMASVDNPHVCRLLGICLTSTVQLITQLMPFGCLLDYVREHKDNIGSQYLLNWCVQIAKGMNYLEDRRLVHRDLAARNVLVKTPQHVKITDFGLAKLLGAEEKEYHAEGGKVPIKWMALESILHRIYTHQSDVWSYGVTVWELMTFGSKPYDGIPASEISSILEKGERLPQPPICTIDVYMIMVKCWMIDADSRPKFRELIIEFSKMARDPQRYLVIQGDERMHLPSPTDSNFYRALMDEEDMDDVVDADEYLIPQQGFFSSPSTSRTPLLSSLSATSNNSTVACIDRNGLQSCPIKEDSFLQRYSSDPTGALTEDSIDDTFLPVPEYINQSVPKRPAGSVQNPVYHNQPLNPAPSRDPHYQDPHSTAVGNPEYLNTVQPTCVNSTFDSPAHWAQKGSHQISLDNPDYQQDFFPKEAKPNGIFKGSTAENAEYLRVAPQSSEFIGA
Sequence of Tyrosine-protein kinase Fgr (Homo sapiens) (P09769 2-529 limits assumed): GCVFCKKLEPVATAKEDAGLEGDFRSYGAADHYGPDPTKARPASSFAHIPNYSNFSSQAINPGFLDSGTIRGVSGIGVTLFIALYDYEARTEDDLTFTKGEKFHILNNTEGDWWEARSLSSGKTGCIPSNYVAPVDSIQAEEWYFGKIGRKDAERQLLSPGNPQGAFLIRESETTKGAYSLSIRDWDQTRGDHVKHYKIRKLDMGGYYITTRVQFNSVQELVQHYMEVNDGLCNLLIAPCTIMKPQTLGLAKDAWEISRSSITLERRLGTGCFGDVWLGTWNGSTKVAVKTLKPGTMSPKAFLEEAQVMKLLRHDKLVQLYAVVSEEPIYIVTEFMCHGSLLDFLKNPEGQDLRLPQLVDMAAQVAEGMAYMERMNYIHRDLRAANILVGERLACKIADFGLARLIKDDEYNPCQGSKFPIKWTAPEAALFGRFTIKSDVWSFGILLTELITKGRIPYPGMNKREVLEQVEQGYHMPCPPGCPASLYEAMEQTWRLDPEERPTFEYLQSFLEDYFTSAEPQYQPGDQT
Sequence of Tyrosine-protein kinase ABL1 (Homo sapiens) (P00519 whole entry, the tested form may be a part): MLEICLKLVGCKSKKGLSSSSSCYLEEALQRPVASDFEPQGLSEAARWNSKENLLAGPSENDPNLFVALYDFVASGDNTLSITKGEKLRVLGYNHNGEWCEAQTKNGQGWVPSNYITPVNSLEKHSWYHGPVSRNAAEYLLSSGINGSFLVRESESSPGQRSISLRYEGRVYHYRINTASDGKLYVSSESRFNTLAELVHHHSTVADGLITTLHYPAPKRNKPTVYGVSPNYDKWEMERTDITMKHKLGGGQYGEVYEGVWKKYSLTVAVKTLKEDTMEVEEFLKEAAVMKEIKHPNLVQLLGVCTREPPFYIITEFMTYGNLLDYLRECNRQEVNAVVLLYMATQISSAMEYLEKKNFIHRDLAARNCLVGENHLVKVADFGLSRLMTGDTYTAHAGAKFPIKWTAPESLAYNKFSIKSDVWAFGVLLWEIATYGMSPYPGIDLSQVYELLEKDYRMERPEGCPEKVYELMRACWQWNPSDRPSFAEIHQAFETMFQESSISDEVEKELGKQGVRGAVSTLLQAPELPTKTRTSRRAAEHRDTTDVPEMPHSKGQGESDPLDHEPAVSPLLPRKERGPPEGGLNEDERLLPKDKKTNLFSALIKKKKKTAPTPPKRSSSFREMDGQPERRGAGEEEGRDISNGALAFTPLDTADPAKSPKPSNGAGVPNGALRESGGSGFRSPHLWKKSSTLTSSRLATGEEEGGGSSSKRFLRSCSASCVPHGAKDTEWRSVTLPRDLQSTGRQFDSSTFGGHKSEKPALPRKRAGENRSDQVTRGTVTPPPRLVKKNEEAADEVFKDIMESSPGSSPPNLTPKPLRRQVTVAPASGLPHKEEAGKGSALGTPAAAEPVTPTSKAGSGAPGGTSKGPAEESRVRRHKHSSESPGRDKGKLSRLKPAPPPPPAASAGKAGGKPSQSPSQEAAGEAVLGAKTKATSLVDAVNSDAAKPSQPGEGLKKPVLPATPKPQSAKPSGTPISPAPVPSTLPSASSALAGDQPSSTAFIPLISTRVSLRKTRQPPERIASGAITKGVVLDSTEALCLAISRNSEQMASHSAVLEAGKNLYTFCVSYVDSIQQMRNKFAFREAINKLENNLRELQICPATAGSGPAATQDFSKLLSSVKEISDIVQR
Sequence of Aurora kinase B (Homo sapiens) (Q96GD4 whole entry): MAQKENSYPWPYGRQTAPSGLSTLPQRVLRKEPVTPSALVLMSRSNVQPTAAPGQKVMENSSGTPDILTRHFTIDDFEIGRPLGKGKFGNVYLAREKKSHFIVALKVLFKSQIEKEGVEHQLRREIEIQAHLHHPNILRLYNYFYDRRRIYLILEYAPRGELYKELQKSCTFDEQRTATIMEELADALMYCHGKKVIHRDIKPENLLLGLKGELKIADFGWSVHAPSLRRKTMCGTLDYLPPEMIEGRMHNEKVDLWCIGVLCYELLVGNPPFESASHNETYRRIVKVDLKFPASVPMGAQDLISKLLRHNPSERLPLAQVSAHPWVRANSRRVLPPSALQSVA

As for `OCC[C@@H](Nc1ncnc2[nH]c(-c3ccccc3)cc12)c1ccccc1`, the inhibition in test [1] worked out at 99%; in test [2], 7%; in test [3], 74%; in [4], 29%; in test [5], 67%; in [6], 26%. Further, the inhibition worked out at 13% in test [7]; 16% in test [8]; 38% in test [9]; 7% in [11]; 25% in test [12]; 6% in test [13]. Also, the inhibition is 14% in [14] and -9% in test [15]. For the same molecule, the IC50 in the test on BaF3 was 75 nM; in test [10], 0.5 nM.
Turning to `OC[C@@H](Nc1ncnc2[nH]c(-c3ccccc3)cc12)c1ccccc1`, the inhibition in test [3] was 88%; in [4], 13%; in test [5], 73%; in test [6] it was 27%; in test [7] it was 19%; in test [8] it was 47%. Besides, the inhibition in test [9] was determined as 65%; in test [11], 13%; in test [12] it was 59%; in [13], 9%; in test [14] it was 19%; in test [15], 17%. The IC50 in [10] was found to be 0.8 nM.
Take `CCOc1ccccc1-c1cc2c(N[C@H](CO)c3ccccc3)ncnc2[nH]1`: the inhibition worked out at 98% in [1]; 9% in test [2]; 82% in test [3]; 26% in [4]; 73% in test [5]; 34% in [6]. Also, the inhibition in test [7] is 13%; in test [8], 14%; in test [9] it was 33%; in test [11], 1%; in test [12] it was 40%; in [13], 2%. The inhibition in [14] came to 10%; in test [15], 1%. Moreover, the values for the concentration for half-maximal inhibition (IC50) (in the test with BaF3; in test [10]) were 98 nM and 0.2 nM, respectively.
For `CN(C)CCNCc1ccc(-c2cc3c(N[C@H](CO)c4ccccc4)ncnc3[nH]2)cc1F`, the inhibition was 99% in [1]; 1% in test [2]; 86% in test [3]; 81% in test [4]; 83% in test [5]; 55% in test [6]. The inhibition in [7] was 48%; in test [8], 13%; in test [9] it was 87%; in [11], 17%; in [12], 76%; in [13], -5%. The inhibition in test [14] came out at 20%. Moreover, the results for the 50% inhibitory concentration (IC50) (with BaF3; in test [10]) were 142 nM and 0.1 nM, respectively.
Turning to `C#Cc1cccc(Nc2ncnc3cc(OCCOC)c(OCCOC)cc23)c1` [ERLOTINIB], the inhibition in test [2] is -3%. The IC50 with BaF3 amounted to 87 nM.
Take `COc1ccccc1-c1cc2c(N[C@H](CO)c3ccccc3)ncnc2[nH]1`: the inhibition in test [1] (tested as the 2H-labelled form) is 99%; in test [2], -2%; in test [3], 79%; in [4] it was 17%; in test [5], 74%; in [6], 27%. The inhibition in test [7] turned out to be 15%; in test [8], 52%; in test [9] it was 50%; in test [11] it was 5%; in test [12], 59%; in [13], 5%. Moreover, the inhibition in [14] is 24%; in test [15], 15%. For the same molecule, the concentration for half-maximal inhibition (IC50) came to 134 nM with BaF3 and 0.4 nM in [10].
